Data: publication PMC3735939, “The low levels of eicosapentaenoic acid in rat brain phospholipids are maintained via multiple redundant mechanisms” (Journal of Lipid Research, 2013)
Several values for one entry are separate records, joined by “and”; a condition that tells them apart may be missing. Equal entries are not always repeated.

Experiments:
[1] = In vivo kinetics of FA incorporation and turnover in brain phospholipids (intravenous radiotracer infusion, kinetic model); set-up: species or system rat
Experimental: Twenty-four hours postsurgery, a second catheter (iv catheter 24 gauge/0.75 inch, Angiocath™; Becton Dickinson) was implanted into the tail vein where rats received either vehicle or 10 mg/kg of MEP. […] The radiotracers were infused for 5 min via the tail vein catheter at a rate of 0.223(1 + e^−19.2t) ml/min (t is infusion time in minutes) ([37]) which achieves a steady-state plasma radioactivity within 1 min ([18], [38]). […] During the 5 min infusion, blood samples were collected from the jugular vein at approximately 0, 0.25, 0.5, 0.75, 1.5, 3, 4, and 5 min while the unanesthetized rat was mobile in the infusion box with food and water. […] After 5 min, the rats were rapidly euthanized by head-focused high-energy microwave irradiation (13.5 kW for 1.6 s; Cober Electronics Inc., Stratford, CT). The radiotracer infusions continued until rats were euthanized. The brain was excised and cut sagittally. Both hemispheres were stored at −80°C for radioactive and biochemical analyses. Plasma was isolated from whole blood via microcentrifugation at 6,200 rpm (2,000 g) for 5 min and stored at −80°C.
The model for in vivo kinetics of brain FAs in rats has been previously described ([17], [18], [21], [23], [25], [37], [41]).
Because the infusion is 5 min, contributions of FA from de novo synthesis and esterified plasma FA are negligible ([18], [20], [23], [41]); thus only contributions from plasma unesterified FAs and acyl-CoA pools were considered in the calculation of λpalmitate, DHA, or EPA .

[2] = cited from earlier work
[3] = tested on: mitochondrial FA β-oxidation; experiment: Radioactivity in brain aqueous fraction (marker of β-oxidation) after 5 min intravenous 14C-tracer infusion; format: in vivo, rat; conditions: vehicle injection; 5 min iv infusion of tracer
Experimental: (§1) Twenty-four hours postsurgery, a second catheter (iv catheter 24 gauge/0.75 inch, Angiocath™; Becton Dickinson) was implanted into the tail vein where rats received either vehicle or 10 mg/kg of MEP. Ten minutes post injection of vehicle or MEP, the tail vein catheter was connected to a syringe containing radiolabeled ^14C-palmitate (n = 8), ^14C-DHA (n = 6), or ^14C-EPA (n = 7) attached to a computer-controlled variable speed pump (PHD 22/2000; Harvard Apparatus, Holliston, MA). […] Each rat received a dose of 76 μCi ^14C-palmitate, 76 μCi ^14C-DHA, or 78 μCi ^14C-EPA. […] The radiotracer infusions continued until rats were euthanized. The brain was excised and cut sagittally. Both hemispheres were stored at −80°C for radioactive and biochemical analyses. Plasma was isolated from whole blood via microcentrifugation at 6,200 rpm (2,000 g) for 5 min and stored at −80°C. Total lipids from one brain hemisphere and from plasma were extracted by the method of Folch, Lees, and Sloane Stanley ([39]). Isolation of various neutral lipid and phospholipid classes from the total lipid extract was previously described by Chen, Liu, and Bazinet ([6]).

[4] = cited from earlier work; remark: listed apart in the source
[5] = Identification of radiolabeled FAs in brain phospholipids by HPLC and LSC after 14C-EPA infusion; format: in vivo, rat; conditions: for percent of total radiolabeled FAs: brain total phospholipids;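 for radiolabeled FA composition: percent of radiolabeled FAs within each phospholipid class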
Experimental: as §1, with “([6]). FA methyl esters and radioactive acyl-CoA analysis were previously described by Chen, Liu, and Bazinet ([6]).” for “([6]).”

With `CC/C=C\C/C=C\C/C=C\C/C=C\C/C=C\C/C=C\CCC(=O)O` [DHA, docosahexaenoic acid] the “FFA rate of turnover” value ([1]; ChoGpl, MEP) was 90 ± 20 %/day, the “JFA net incorporation rate from brain acyl-CoA” value (shortened to “JFA net incorporation rate”) ([1]; ChoGpl, MEP) was 1,234 ± 344 nmol/g/day and the “Jin net incorporation rate from plasma unesterified FA” value (“Jin net incorporation rate” for short) ([1]; ChoGpl, MEP) was 4.3 ± 0.38 nmol/g/day. The “FFA rate of turnover” value ([1]; ChoGpl, Vehicle) was 150 ± 14 %/day, the “JFA net incorporation rate” value ([1]; ChoGpl, Vehicle) was 2,146 ± 225 nmol/g/day and the “Jin net incorporation rate” value ([1]; ChoGpl, Vehicle) was 5.2 ± 0.62 nmol/g/day. The “FFA rate of turnover” value ([1]; EtnGpl, MEP) was 37 ± 9.6 %/day, the “JFA net incorporation rate” value ([1]; EtnGpl, MEP) was 2,030 ± 492 nmol/g/day and the “Jin net incorporation rate” value ([1]; EtnGpl, MEP) was 7.2 ± 1.2 nmol/g/day. The “FFA rate of turnover” value ([1]; EtnGpl, Vehicle) was 55 ± 5.4 %/day, the “JFA net incorporation rate” value ([1]; EtnGpl, Vehicle) was 3,233 ± 184 nmol/g/day and the “Jin net incorporation rate” value ([1]; EtnGpl, Vehicle) was 7.9 ± 1.4 nmol/g/day. The “FFA rate of turnover” value ([1]; PtdIns, MEP) was 308 ± 105 %/day, the “JFA net incorporation rate” value ([1]; PtdIns, MEP) was 477 ± 106 nmol/g/day and the “Jin net incorporation rate” value ([1]; PtdIns, MEP) was 1.7 ± 0.3 nmol/g/day. The “FFA rate of turnover” value ([1]; PtdIns, Vehicle) was 458 ± 156 %/day, the “JFA net incorporation rate” value ([1]; PtdIns, Vehicle) was 688 ± 144 nmol/g/day and the “Jin net incorporation rate” value ([1]; PtdIns, Vehicle) was 1.8 ± 0.078 nmol/g/day. For the same molecule, the “FFA rate of turnover” value ([1]; PtdSer, MEP) was 8.4 ± 3.1 %/day, the “JFA net incorporation rate” value ([1]; PtdSer, MEP) was 198 ± 79 nmol/g/day and the “Jin net incorporation rate” value ([1]; PtdSer, MEP) was 0.68 ± 0.11 nmol/g/day. The “FFA rate of turnover” value ([1]; PtdSer, Vehicle) was 9.2 ± 2.1 %/day, the “JFA net incorporation rate” value ([1]; PtdSer, Vehicle) was 237 ± 50 nmol/g/day and the “Jin net incorporation rate” value ([1]; PtdSer, Vehicle) was 0.56 ± 0.053 nmol/g/day. The “FFA rate of turnover” value ([1]; Total PL, MEP) was 51 ± 10 %/day, the “JFA net incorporation rate” value ([1]; Total PL, MEP) was 4,390 ± 988 nmol/g/day and the “Jin net incorporation rate” value ([1]; Total PL, MEP) was 16 ± 1.2 nmol/g/day. For the same molecule, the “FFA rate of turnover” value ([1]; Total PL, Vehicle) was 75 %/day and 75 ± 7.7 %/day, the “JFA net incorporation rate” value ([1]; Total PL, Vehicle) was 7,259 ± 958 nmol/g/day and the “Jin net incorporation rate” value ([1]; Total PL, Vehicle) was 17 nmol/g/day and 17 ± 1.8 nmol/g/day. For the same molecule, the “Jin, percent lower than reported Jin” value ([1]; rat, in vivo) was 89–91%, the “fold difference in λ between DHA and EPA” value ([1]; rat, in vivo) was 50 fold and the λ dilution factor ([1]; vehicle) was 0.0024 ± 0.0003. The “FFA into brain total phospholipids, fold higher than EPA” value ([1]; vehicle injection) was 4 fold, the “Jin into brain total phospholipids, fold higher than EPA” value ([1]; vehicle injection) was 3 fold and the “t1/2, fold lower than EPA” value ([1]; vehicle injection) was 4 fold. The “Jin, reported” value [2] was 150 to 190 nmol/g/day, the “radioactivity of brain aqueous fraction” value [3] was 17 nCi/g brain and the “Jout net rate of loss from brain phospholipids” value [4] was 58 to 257 nmol/g/day. For the same molecule, the “loss t1/2 from brain phospholipids” value [4] was 33 days, the “rate of loss from brain phospholipids” value [4] was 2 % per day and the “radiolabeled FA composition” value ([5]; ChoGpl, MEP-treated rats) was 4%. For the same molecule, the “radiolabeled FA composition” value ([5]; ChoGpl, vehicle-treated rats) was 11%, the “radiolabeled FA composition” value ([5]; EtnGpl, MEP-treated rats) was 14% and the “radiolabeled FA composition” value ([5]; EtnGpl, vehicle-treated rats) was 29%. The “percent of total radiolabeled FAs” value ([5]; MEP-treated rats) was 3% and the “percent of total radiolabeled FAs” value ([5]; vehicle-treated rats) was 10%.
